We go through 5 compounds from patent publication US7288528B2, “Aromatic fluoroglycoside derivatives, medicaments containing these compounds, and the use thereof” (Sanofi-Aventis Deutschland GmbH, priority 2002, dated 2007).

Each structure is given as a SMILES string.

This experiment deals with T1, SGLT (Oryctolagus cuniculus, UniProt P11170).
T1 construct: To prepare brush border membranes from rabbit small intestine, rabbits were sacrificed; from tissue; host or cells: rabbit small intestine mucosa, brush border membrane vesicles (Mg2+ precipitation method)
T1 sequence (P11170 1-662): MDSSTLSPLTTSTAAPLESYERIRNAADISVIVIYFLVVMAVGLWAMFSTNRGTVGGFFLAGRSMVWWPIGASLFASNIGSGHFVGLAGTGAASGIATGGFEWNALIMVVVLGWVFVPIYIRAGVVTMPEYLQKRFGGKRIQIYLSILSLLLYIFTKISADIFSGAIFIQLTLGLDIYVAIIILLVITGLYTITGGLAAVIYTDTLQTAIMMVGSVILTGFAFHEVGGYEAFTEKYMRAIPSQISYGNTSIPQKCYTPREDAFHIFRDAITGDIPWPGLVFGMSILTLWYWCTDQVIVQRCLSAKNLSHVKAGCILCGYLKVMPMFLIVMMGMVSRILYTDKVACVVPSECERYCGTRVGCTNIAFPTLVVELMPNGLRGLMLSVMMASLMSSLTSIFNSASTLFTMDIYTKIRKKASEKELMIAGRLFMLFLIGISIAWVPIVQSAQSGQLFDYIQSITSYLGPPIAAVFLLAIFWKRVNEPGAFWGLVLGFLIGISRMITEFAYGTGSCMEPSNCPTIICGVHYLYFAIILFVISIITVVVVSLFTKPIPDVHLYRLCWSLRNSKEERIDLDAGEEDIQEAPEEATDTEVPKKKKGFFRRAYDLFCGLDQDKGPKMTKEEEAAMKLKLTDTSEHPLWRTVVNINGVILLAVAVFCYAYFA
Nature of the experiment: Glucose uptake by brush border membrane vesicles (transport assay, membrane filtration method). The format is biochemical. The following applies: uptake of 10 μM [14C]D-glucose into rabbit small intestine brush border membrane vesicles, 30° C., 15 seconds.
As a reminder, the IC50 is the concentration that inhibits the measured activity by half. Lower therefore signals greater potency in that assay. The compound `Cc1cc(O)c(C(=O)CCc2ccc3occc3c2)c(OC2OC(CO)C(F)C(O)C2O)c1` (single isomer, unassigned) [Example 5] registered an IC50 of 400 nM. The same measure for `OCC1OC(Oc2ccccc2Cc2ccccc2)C(O)C(O)C1F` (centres unmarked) [Example 2]: 700 nM.

Compound `Cc1cc(O)c(C(=O)CCc2ccc3occc3c2)c(OC2OC(CO)C(F)C(O)C2O)c1` (single isomer, unassigned) [Example 4] came in with an IC50 of 1500 nM. The compound `COc1ccc(Cc2ccccc2OC2OC(CO)C(F)C(O)C2O)cc1` (centres unmarked) [Example 1] yielded a half-inhibitory concentration (IC50) of 500 nM. The compound `COc1ccc(CCC(=O)c2c(O)cc(C)cc2OC2OC(CO)C(F)C(O)C2O)cc1` (centres unmarked) [Example 7] gave an IC50 of 900 nM.
